Test results as given in US20230063462A1, “SULFONIMIDAMIDE COMPOUNDS AND COMPOSITIONS FOR TREATING CONDITIONS ASSOCIATED WITH NLRP ACTIVITY” (NOVARTIS AG, priority 2019, published 2023).
Read-outs that look alike come from different tables or passages of the source.

Key:
THP-1 cells [1] = experiment: hTHP-1 assay: gramicidin-stimulated IL-1β detection in PMA-treated THP-1 cells; assay type: cell-based, human; details: Table B2, 10% FBS
THP-1 cells [2] = experiment: as above; assay type: cell-based, human; details: Homo sapiens
Method: The following protocol is suitable for testing the activity of the compounds disclosed herein.
1. Experimental procedure • 1.1 Cell Culture • 1) Culture THP-1 cells in the complete RPMI-1640 medium with 10% FBS at 37° C., 5% CO2. • 2) Passage the cells every 3 days by inoculating 3×10^5 cells per ml. • 1.2 Compound Preparation • Prepare the 3-fold serial dilution of the compounds with DMSO in a 384-well LDV Microplate using TECAN EVO system to generate the compound source plate with 10 concentrations. […] HC: 100 μM CRID3 (MCC950)+5 μM gramicidin LC: 5 μM Gramicidin. • 1.5 IL-1β Detection • 1) Homogenize the 5× diluent #5 with a vortex and add 1 volume of stock solution in 4 volumes of distilled water. • 2) Thaw 20× stock solution of anti-IL1β-Cryptate-antibody and anti-IL1β XL-antibody. Dilute these two antibodies to 1× with detection buffer #3. • 3) Pre-mix the two ready-to-use antibody solutions just prior to use. • 4) Dispense 4 ul of pre-mixed Anti-IL1β antibodies working solution into all wells. • 5) Seal the plate and incubate overnight at 4° C. • 6) Read the cell plate using EnVison and plot Readout vs. the test compound concentration to calculate the IC50.
2. Data Analysis: • 1. IC50 of compounds can be calculated using the following formulas • Formula for IC50
% inhibition=100−100×[HCave-Readout/(HCave−LCave)] • 2. Fit the normalized data in a dose-response manner using XLfit, and calculate the compound concentration.

[3] = THP-1, Table B2, 10% FBS, class symbol, read-out: hTHP-1 IC50 in 10% FBS
[4] = THP-1, Table B2, 10% FBS, numeric value, read-out: hTHP-1 IC50 in 10% FBS
[5] = THP-1, Table B1, 2% fetal bovine serum, class symbol, read-out: hTHP-1 IC50
[6] = THP-1, Table B1, 2% fetal bovine serum, numeric value, read-out: hTHP-1 IC50

Row | SMILES | IC50 (THP-1 cells [1]; class symbol) [µM] | IC50 (THP-1 cells [1]; numeric value) [µM] | other results
1 | NS(=O)(=NC(=O)Nc1c2c(nc(C3CC3)c1C1CC1)CCC2)c1ccn(C2CC2)n1 (single isomer, unassigned) [Example 878, (R) or (S)-1-cyclopropyl-N′-((2,3-dicyclopropyl-6,7-dihydro-5H-cyclopenta[b]pyridin-4-yl)carbamoyl)-1H-pyrazole-3-sulfonimidamide] | 0.04 to 0.2 | 0.088 | –
2 | NS(=O)(=NC(=O)Nc1c2c(nc(C3CC3)c1C1CC1)CCC2)c1ccn(C2CC2)n1 (single isomer, unassigned) [Example 879, (S) or (R)-1-cyclopropyl-N′-((2,3-dicyclopropyl-6,7-dihydro-5H-cyclopenta[b]pyridin-4-yl)carbamoyl)-1H-pyrazole-3-sulfonimidamide] | 1 to 5 | 4.43 | –
3 | NS(=O)(=NC(=O)Nc1c2c(nc(C3CC3)c1C1CC1)CCC2)c1nn(C2CC2)cc1F (single isomer, unassigned) [Example 882, (R) or (S)-1-cyclopropyl-N′-((2,3-dicyclopropyl-6,7-dihydro-5H-cyclopenta[b]pyridin-4-yl)carbamoyl)-4-fluoro-1H-pyrazole-3-sulfonimidamide] | 0.04 to 0.2 | 0.102 | –
4 | NS(=O)(=NC(=O)Nc1c2c(nc(C3CC3)c1C1CC1)CCC2)c1nn(C2CC2)cc1F (single isomer, unassigned) [Example 883, (S) or (R)-1-cyclopropyl-N′-((2,3-dicyclopropyl-6,7-dihydro-5H-cyclopenta[b]pyridin-4-yl)carbamoyl)-4-fluoro-1H-pyrazole-3-sulfonimidamide] | 1 to 5 | 1.25 | –
5 | NS(=O)(=NC(=O)Nc1c2c(nc3c1CCC31CC1)CCC2)c1ccn(C2CC2)n1 (single isomer, unassigned) [Example 884, (R) or (S)-1-cyclopropyl-N′-((1′,5′,6′,7′-tetrahydro-2′H-spiro[cyclopropane-1,3′-dicyclopenta[b,e]pyridin]-8′-yl)carbamoyl)-1H-pyrazole-3-sulfonimidamide] | 0.04 to 0.2 | 0.0533 | –
6 | NS(=O)(=NC(=O)Nc1c2c(nc3c1CCC31CC1)CCC2)c1ccn(C2CC2)n1 (single isomer, unassigned) [Example 885, (S) or (R)-1-cyclopropyl-N′-((1′,5′,6′,7′-tetrahydro-2′H-spiro[cyclopropane-1,3′-dicyclopenta[b,e]pyridin]-8′-yl)carbamoyl)-1H-pyrazole-3-sulfonimidamide] | 1 to 5 | 2.26 | –
7 | NS(=O)(=NC(=O)Nc1c2c(nc3c1CCC3)CCC2)c1ccn(C2CC2)n1 (single isomer, unassigned) [Example 886, (R) or (S)-1-cyclopropyl-N′-((1,2,3,5,6,7-hexahydrodicyclopenta [b,e]pyridin-8-yl)carbamoyl)-1H-pyrazole-3-sulfonimidamide] | 0.2 to 1 | 0.27 | –
8 | NS(=O)(=NC(=O)Nc1c2c(nc3c1CCC3)CCC2)c1ccn(C2CC2)n1 (single isomer, unassigned) [Example 887, (S) or (R)-1-cyclopropyl-N′-((1,2,3,5,6,7-hexahydrodicyclopenta [b,e]pyridin-8-yl)carbamoyl)-1H-pyrazole-3-sulfonimidamide] | 5 to 30 | 5.88 | –
9 | C[C@@H]1CCc2c1nc1c(c2NC(=O)N=S(N)(=O)c2ccn(C3CC3)n2)CCC1 (single isomer, unassigned) [Example 888, (R) or (S)-1-cyclopropyl-N′-(((R)-3-methyl-1,2,3,5,6,7-hexahydrodicyclopenta [b,e]pyridin-8-yl)carbamoyl)-1H-pyrazole-3-sulfonimidamide] | 0.04 to 0.2 | 0.0494 | –
10 | C[C@@H]1CCc2c1nc1c(c2NC(=O)N=S(N)(=O)c2ccn(C3CC3)n2)CCC1 (single isomer, unassigned) [Example 889, (S) or (R)-1-cyclopropyl-N′-(((R)-3-methyl-1,2,3,5,6,7-hexahydrodicyclopenta [b,e]pyridin-8-yl)carbamoyl)-1H-pyrazole-3-sulfonimidamide] | 1 to 5 | 1.67 | –
11 | C[C@@H](O)Cn1cc(F)c(S(N)(=O)=NC(=O)Nc2c3c(nc4c2CCC42CC2)CCC3)n1 (single isomer, unassigned) [Example 892, (R) or (S)-4-fluoro-1-((R)-2-hydroxypropyl)-N′-((1′,5′,6′,7′-tetrahydro-2′H-spiro [cyclopropane-1,3′-dicyclopenta[b,e]pyridin]-8′-yl)carbamoyl)-1H-pyrazole-3-sulfonimidamide] | 0.008 to 0.04 | 0.0127 | –
12 | C[C@@H](O)Cn1cc(F)c(S(N)(=O)=NC(=O)Nc2c3c(nc4c2CCC42CC2)CCC3)n1 (single isomer, unassigned) [Example 893, (S) or (R)-4-fluoro-1-((R)-2-hydroxypropyl)-N′-((1′,5′,6′,7′-tetrahydro-2′H-spiro [cyclopropane-1,3′-dicyclopenta[b,e]pyridin]-8′-yl)carbamoyl)-1H-pyrazole-3-sulfonimidamide] | 0.2 to 1 | 0.679 | –
13 | NS(=O)(=NC(=O)Nc1c2c(nc(C(F)(F)F)c1C1CC1)CCC2)c1ccn(C2CC2)n1 (single isomer, unassigned) [Example 898, (R) or (S)-1-cyclopropyl-N′-((3-cyclopropyl-2-(trifluoromethyl)-6,7-dihydro-5H-cyclopenta [b]pyridin-4-yl)carbamoyl)-1H-pyrazole-3-sulfonimidamide] | – | – | IC50 (THP-1 cells [2]; [3]): 0.04 to 0.2 µM; IC50 (THP-1 cells [2]; [4]): 0.114 µM
14 | CC(C)(O)c1ncc(S(=O)(=NC(=O)Nc2c3c(cc4c2CCC4)CCC3)NC#N)s1 (stereo not drawn) [Example 3, N-cyano-N′-((1,2,3,5,6,7-hexahydro-s-indacen-4-yl)carbamoyl)-2-(2-hydroxypropan-2-yl)thiazole-5-sulfonimidamide] | – | – | IC50 (THP-1 cells [2]; [5]): 0.04 to 0.2 µM; IC50 (THP-1 cells [2]; [6]): 0.034 µM
15 | CC(C)(O)c1nc(CO)c([S@](=O)(=NC(=O)Nc2c3c(nc4c2CCC4(C)C)CCC3)NC#N)s1 [Example 12, (S) or-N-cyano-N′-((3,3-dimethyl-1,2,3,5,6,7-hexahydrodicyclopenta[b,e]pyridin-8-yl)carbamoyl)-4-(hydroxymethyl)-2-(2-hydroxypropan-2-yl)thiazole-5-sulfonimidamide] | – | – | IC50 (THP-1 cells [2]; [5]): 0.04 to 0.2 µM; IC50 (THP-1 cells [2]; [6]): 0.419 µM
16 | NS(=O)(=NC(=O)Nc1c2c(nc(C(F)(F)F)c1C1CC1)CCC2)c1ccn(C2CC2)n1 (stereo not drawn) [Example 873, 1-Cyclopropyl-N′-((3-cyclopropyl-2-(trifluoromethyl)-6,7-dihydro-5H-cyclopenta[b]pyridin-4-yl)carbamoyl)-1H-pyrazole-3-sulfonimidamide] | – | – | IC50 (THP-1 cells [2]; [3]): 0.04 to 0.2 µM; IC50 (THP-1 cells [2]; [4]): 0.128 µM
17 | NS(=O)(=NC(=O)Nc1c2c(nc(C3CC3)c1C1CC1)CCC2)c1ccn(C2CC2)n1 (stereo not drawn) [Example 877, 1-Cyclopropyl-N′-((2,3-dicyclopropyl-6,7-dihydro-5H-cyclopenta[b]pyridin-4-yl)carbamoyl)-1H-pyrazole-3-sulfonimidamide] | – | – | IC50 (THP-1 cells [2]; [3]): 0.04 to 0.2 µM; IC50 (THP-1 cells [2]; [4]): 0.154 µM

More lines, main results first:

Row | IC50 (THP-1 cells [1]; class symbol) [µM] | IC50 (THP-1 cells [1]; numeric value) [µM] | SMILES | other results
18 | 0.04 to 0.2 | 0.0539 | NS(=O)(=NC(=O)Nc1c2c(nc(C(F)(F)F)c1C1CC1)CCC2)c1nn(C2CC2)cc1F (single isomer, unassigned) [Example 880, (R) or (S)-1-cyclopropyl-N′-((3-cyclopropyl-2-(trifluoromethyl)-6,7-dihydro-5H-cyclopenta [b]pyridin-4-yl)carbamoyl)-4-fluoro-1H-pyrazole-3-sulfonimidamide] | –
19 | 1 to 5 | 1.41 | NS(=O)(=NC(=O)Nc1c2c(nc(C(F)(F)F)c1C1CC1)CCC2)c1nn(C2CC2)cc1F (single isomer, unassigned) [Example 881, (S) or (R)-1-cyclopropyl-N′-((3-cyclopropyl-2-(trifluoromethyl)-6,7-dihydro-5H-cyclopenta [b]pyridin-4-yl)carbamoyl)-4-fluoro-1H-pyrazole-3-sulfonimidamide] | –
20 | 0.04 to 0.2 | 0.108 | Cc1c(C(F)(F)F)nc2c(c1NC(=O)N=S(N)(=O)c1ccn(C3CC3)n1)CCC2 (single isomer, unassigned) [Example 890, (R) or (S)-1-cyclopropyl-N′-((3-methyl-2-(trifluoromethyl)-6,7-dihydro-5H-cyclopenta [b]pyridin-4-yl)carbamoyl)-1H-pyrazole-3-sulfonimidamide] | –
21 | 5 to 30 | 6.51 | Cc1c(C(F)(F)F)nc2c(c1NC(=O)N=S(N)(=O)c1ccn(C3CC3)n1)CCC2 (single isomer, unassigned) [Example 891, (S) or (R)-1-cyclopropyl-N′-((3-methyl-2-(trifluoromethyl)-6,7-dihydro-5H-cyclopenta [b]pyridin-4-yl)carbamoyl)-1H-pyrazole-3-sulfonimidamide] | –
